The source of these data is patent US12459939B2 (SHANGHAI RINGENE BIOPHARMA CO., LTD., priority 2019, dated 2025).

The IC50 is the concentration that inhibits the measured activity by half.

The structures appear in SMILES notation.

Assay [1] has as its target T1, BRD4-BD2 (Homo sapiens, UniProt O60885).
T1 construct: purchased ReactionBiologyCorp; (RBC)
Put plainly: BRD4 AlphaScreen determination (BD2). In kind it is binding. The settings on record: AlphaScreen, protein binding inhibition; read-out: BRD4-BD2 IC50. How it is done: (§1) (1) 1× Assay buffer was prepared according to the kit requirements of ReactionBiologyCorp. (RBC). (2) Compound concentration gradient preparation: the test compounds were tested at final concentrations starting at 10 μM, with 10 concentrations at 3-fold dilution and single well test was set for each concentration. The positive control compound(+)-JQ-1 was tested at final concentrations starting at 1 μM, with 10 concentrations at 3-fold dilution, and duplicated well test was set for each concentration. The solution was gradient diluted to the corresponding 1000-fold final concentration in a 384-well Source plate, and then 20 nL of the solution was transferred to the 384-well reaction plate with Echo550 to be measured. 20 nL of 100% DMSO was transferred to the Max well, and the highest concentration of the positive compounds were transferred to the Min wells. […] (6) 5 μL of 4× peptide solution was added to each well of the reaction plate, centrifuged at 1000 rpm for 1 min. (7) 10 μL of the assay solution was added, centrifuged at 1000 rpm for 60 seconds, the solution was mixed with gentle shaking, and incubated at room temperature for 60 minutes. (8) Reading with EnVision. (9) The IC50 values of the compounds for protein binding inhibition was obtained by fitting the dose-effect curve with the analytical software GraphPad Prism 5. (See Table 1 for specific values)
A general note: Bead proximity is the source of the signal in Alpha formats.

The test system of assay [2] is MV4-11 cells. Put plainly: Inhibition of proliferation of MV4-11 cells (CellTiter-Glo). Format: cell-based. The settings on record: Homo sapiens, 72 h. How it is done: Specific experimental steps: 1) Day 0: 96 inoculated cells were digested with trypsin and suspended in cell culture medium, the cell density was detected by an automatic cell counter and the cells were diluted with the culture medium to a suitable density, 100 μL of cell suspension was added to the 96-well plate, and the cell-free medium was used as a control well, and the wells were incubated in a 37° C., 5% CO2 cell incubator overnight; 2) Day 1: A total of 8 concentrations of the compound to be tested in the drug-treated cells were tested at 3-fold dilution, 10 μM was the starting assay concentration of the compound to be tested. Specific steps: 200× compound mother liquor was prepared, the compound was diluted with culture medium to a final concentration of […], that is, 3 μL of 200× compound was added to 197 μL of culture medium, 50 μL diluted compound was added to each well of the 96-well plate, and placed at 37° C., 5% CO2 cell culture incubator for 72 h; 3) Day 4: Cell viability detection: 96-well cell plate was first equilibrated to room temperature, 40 μL of CellTiter-Glo® reagent was added to each well, mixed on a shaker for 2 minutes to fully lyse the cells, incubated at room temperature for 10 minutes to stabilize the luminescence signal, and the luminescence value was read by the Envision microplate reader; 4) data processing was performed by GraphPad Prism 5.0 software to analyze the data, and nonlinear S-curve regression was used to fit the data to obtain a dose-effect curve, and from which the ICso value was calculated. Inhibition rate %=(DMSO treated cell wells−compound treated cell wells)/(DMSO treated cell wells−cell free medium wells)×100. The ICso value was obtained by the four-parameter regression method using the random software in the microplate reader. (See Table 2 for specific values)
On the technique in general: ATP-based viability assays read luminescence as a measure of living cells.

Assay [3] has as its target T2, BRD4-BD1 (Homo sapiens, UniProt O60885).
T2 construct: purchased ReactionBiologyCorp; (RBC)
Put plainly: BRD4 AlphaScreen determination (BD1). Format: binding. The settings on record: AlphaScreen, protein binding inhibition; read-out: BRD4-BD1 IC50. How it is done: as §1

Consider `Cc1cc(F)cc(C)c1Oc1ccc(C(C)(C)O)cc1-c1cn(C)c(=O)c2cc(C(=O)NC3CC3)[nH]c12` [Embodiment 16, N-cyclopropyl-7-(2-(4-fluoro-2,6-dimethylphenoxy)-5-(2-hydroxyprop-2-yl)phenyl)-5-methyl-4-oxo-4,5-dihydro-1H-pyrrolo[3,2-c]pyridine-2-amide], for which the concentration for half-maximal inhibition (IC50) in assay [1] was less than 0.5 nM; in assay [2] it was 7.95 nM; in assay [3], 93 nM.
Consider `COCCNC(=O)c1cc2c(=O)n(C)cc(-c3cc(C(C)(C)O)ccc3Oc3c(C)cc(F)cc3C)c2[nH]1` [Embodiment 9, 7-(2-(4-fluoro-2,6-dimethylphenoxy)-5-(2-hydroxyprop-2-yl)phenyl)-N-(2-methoxyethyl)-5-methyl-4-oxo-4,5-dihydro-1H-pyrrolo[3,2-c]pyridine-2-amide], for which the values for the half-inhibitory concentration (IC50) in assay [1], in assay [2] and in assay [3] were 0.51 nM, 19.8 nM and 37 nM, respectively.
Regarding `Cc1cc(F)cc(C)c1Oc1ccc(C(C)(C)O)cc1-c1cn(C)c(=O)c2cc(C(=O)NCC#N)[nH]c12` [Embodiment 15, N-(cyanomethyl)-7-(2-(4-fluoro-2,6-dimethylphenoxy)-5-(2-hydroxyprop-2-yl)phenyl)-5-methyl-4-oxo-4,5-dihydro-1H-pyrrolo[3,2-c] pyridine-2-amide], the IC50 in assay [1] was less than 0.5 nM; in assay [2], 33.3 nM; in assay [3] it was 81 nM.
Take `Cc1cc(F)cc(C)c1Oc1ccc(C(C)(C)O)cc1-c1cn(C)c(=O)c2cc(C(=O)N3CC(F)(F)C3)[nH]c12` [Embodiment 19, 2-(3,3-difluoroazetidine-1-carbonyl)-7-(2-(4-fluoro-2,6-dimethylphenoxy)-5-(2-hydroxyprop-2-yl)phenyl)-5-methyl-1,5-dihydro-4H-pyrrolo[3,2-c]pyridin-4-one]: the half-inhibitory concentration (IC50) in assay [1] worked out at 2.8 nM; in assay [2] it was 147 nM; in assay [3], 292 nM.
Taken in the same sequence, the figures for `Cc1cc(F)cc(C)c1Oc1ccc(C(C)(C)O)cc1-c1cn(C)c(=O)c2cc(C(=O)N3CCC3)[nH]c12` [Embodiment 17, 2-(azetidine-1-carbonyl)-7-(2-(4-fluoro-2,6-dimethylphenoxy)-5-(2-hydroxyprop-2-yl)phenyl)-5-methyl-1,5-dihydro-4H-pyrrolo[3,2-c] pyridin-4-one] were 7.4 nM, 248 nM and 233 nM.
Taken in the same sequence, the figures for `Cc1cc(F)cc(C)c1Oc1ccc(C(C)(C)O)cc1-c1cn(C)c(=O)c2cc(C(=O)NCC3CC3)[nH]c12` [Embodiment 12, N-(cyclopropylmethyl)-7-(2-(4-fluoro-2,6-dimethylphenoxy)-5-(2-hydroxyprop-2-yl)phenyl)-5-methyl-4-oxo-4,5-dihydro-1H-pyrrolo[3,2-c]pyridine-2-amide] were less than 0.5 nM, 12.7 nM and 50 nM.
In the case of `Cc1cc(F)cc(C)c1Oc1ccc(C(C)(C)O)cc1-c1cn(C)c(=O)c2cc(C(=O)NC(C)C)[nH]c12` [Embodiment 13, 7-(2-(4-fluoro-2,6-dimethylphenoxy)-5-(2-hydroxyprop-2-yl)phenyl)-N-isopropyl-5-methyl-4-oxo-4,5-dihydro-1H-pyrrolo[3,2-c]pyridine-2-amide], the half-maximal inhibitory concentration (IC50) in assay [1] was less than 0.5 nM; in assay [2] it was 6.6 nM; in assay [3], 79 nM.
Taken in the same sequence, the figures for `Cc1cc(F)cc(C)c1Oc1ccc(C(C)(C)O)cc1-c1cn(C)c(=O)c2cc(C(=O)NC(CF)CF)[nH]c12` [Embodiment 20, N-(1,3-difluoropropyl-2-yl)-7-(2-(4-fluoro-2,6-dimethylphenoxy)-5-(2-hydroxyprop-2-yl)phenyl)-5-methyl-4-oxo-4,5-dihydro-1H-pyrrolo[3,2-c]pyridine-2-amide] were less than 0.51 nM, 4.8 nM and 98 nM.
Taken in the same sequence, the figures for `Cc1cc(F)cc(C)c1Oc1ccc(C(C)(C)O)cc1-c1cn(C)c(=O)c2cc(C(=O)NCCS(C)(=O)=O)[nH]c12` [Embodiment 10, 7-(2-(4-fluoro-2,6-dimethylphenoxy)-5-(2-hydroxyprop-2-yl)phenyl)-N-(2-methylsulfonyl)-4-oxo-4,5-dihydro-1H-pyrrolo pyridine-2-amide] were 0.69 nM, 19.8 nM and 58 nM.
The matching figures for `CCNC(=O)c1cc2c(=O)n(C)cc(-c3cc(S(C)(=O)=O)cc4c3OC(C)(C)C(=O)N4C)c2[nH]1` [Embodiment 2, N-ethyl-5-methyl-4-oxo-7-(2,2,4-trimethyl-6-(methylsulfonyl)-3-oxo-3,4-dihydro-2H-benzo[b][1,4]oxazin-8-yl)-4,5-dihydro-1H-pyrrolo[3,2-c]pyridine-2-amide]: 1.2 nM, 64 nM and 36 nM.
`Cc1cc(F)cc(C)c1Oc1ccc(C(C)(C)O)cc1-c1cn(C)c(=O)c2cc(C(=O)NCCCCCc3cccc4c3CN(C3CCC(=O)NC3=O)C4=O)[nH]c12` (centres unmarked) [Embodiment 4, N-(5-(2-(2,6-dioxopiperidin-3-yl)-1-oxoisoindolin-4-yl)pentyl)-7-(2-(4-fluoro-2,6-dimethylphenoxy)-5-(2-hydroxyprop-2-yl)phenyl)-5-methyl-4-oxo-4,5-dihydro-1H-pyrrolo[3,2-c]pyridine-2-amide] displayed a half-maximal inhibitory concentration (IC50) in assay [2] of less than 1.5 nM.
`Cc1cc(F)cc(C)c1Oc1ccc(C(C)(C)O)cc1-c1cn(C)c(=O)c2cc(C(=O)NCC(F)(F)F)[nH]c12` [Embodiment 14, 7-(2-(4-fluoro-2,6-dimethylphenoxy)-5-(2-hydroxyprop-2-yl)phenyl)-5-methyl-4-oxo-N-(2,2,2-trifluoroethyl)-4,5-dihydro-1H-pyrrolo[3,2-c]pyridine-2-amide]: the values for the IC50 in assay [1], in assay [2] and in assay [3] were less than 0.5 nM, 31.3 nM and 219 nM, respectively.
In assay [2], `Cc1cc(F)cc(C)c1Oc1ccc(C(C)(C)O)cc1-c1cn(C)c(=O)c2cc(C(=O)NCCCCNC(=O)COc3cccc4c3C(=O)N(C3CCC(=O)NC3=O)C4=O)[nH]c12` (centres unmarked) [Embodiment 5, N-(4-(2-((2-(2,6-dioxopiperidin-3-yl)-1,3-dioxoisoindolin-4-yl)oxo)acetamido)butyl)-7-(2-(4-fluoro-2,6-dimethylphenoxy)-5-(2-hydroxyprop-2-yl)phenyl)-5-methyl-4-oxo-4,5-dihydro-1H-pyrrolo[3,2-c]pyridine-2-amide] yielded an IC50 of less than 1.5 nM.
`Cc1cc(F)cc(C)c1Oc1ccc(C(C)(C)O)cc1-c1cn(C)c(=O)c2cc(C(=O)NCCCOCCOCCOCCCNc3cccc4c3C(=O)N(C3CCC(=O)NC3=O)C4=O)[nH]c12` (centres unmarked) [Embodiment 6, N-(3-(2-(2-(3-((2-(2,6-dioxopiperidin-3-yl)-1,3-dioxoisoindolin-4-yl)amino)propoxy)ethoxy)ethoxy)propyl)-7-(2-(4-fluoro-2,6-dimethylphenoxy)-5-(2-hydroxyprop-2-yl)phenyl)-5-methyl-4-oxo-4,5-dihydro-1H-pyrrole[3,2-c]pyridine-2-amide] yielded an IC50 in assay [2] of 10.2 nM.
Regarding `Cc1cc(F)cc(C)c1Oc1ccc(C(C)(C)O)cc1-c1cn(C)c(=O)c2cc(C(=O)NCCCC#Cc3cccc4c3CN(C3CCC(=O)NC3=O)C4=O)[nH]c12` (centres unmarked) [Embodiment 3, N-(5-(2-(2,6-dioxopiperidin-3-yl)-1-oxoisoindolin-4-yl)pent-4-yn-1-yl)-7-(2-(4-fluoro-2,6-dimethylphenoxy)-5-(2-hydroxyprop-2-yl)phenyl)-5-methyl-4-oxo-4,5-dihydro-1H-pyrrolo[3,2-c]pyridine-2-amide], the IC50 in assay [2] was less than 1.5 nM.
Same read-out and setting: then `CN1C(=O)C(C)(C)Oc2c(-c3cn(C)c(=O)c4cc(C(=O)NCCOCCOCCOCCC(=O)Nc5cccc6c5C(=O)N(C5CCC(=O)NC5=O)C6=O)[nH]c34)cc(S(C)(=O)=O)cc21` (centres unmarked) [Embodiment 7, N-(2-(2-(2-(3-((2-(2,6-dioxopiperidin-3-yl)-1,3-dioxoisoindolin-4-yl)amino)-3-oxo-n-propoxy)ethoxy)ethoxy)ethyl)-5-methyl-4-oxo-7-(2,2,4-trimethyl-6-(methylsulfonyl)-3-oxo-3,4-dihydro-2H-benzo[b] [1,4]oxazin-8-yl)-4,5-dihydro-1H-pyrrolo[3,2-c]pyridine-2-amide], with less than 1.5 nM.
